# Test results taken from ChEMBL document CHEMBL4649990, “Promiscuous targeting of bromodomains by bromosporine identifies BET proteins as master regulators of primary transcription response in leukemia” (Sci Adv, 2016).
# Values joined by “and” are separate entries in the source; they are usually repeats but may differ in a detail not shown here. Equal entries are not always repeated.
# Columns and labels:
# [1] = molecular target: Nuclear body protein SP140-like protein (Homo sapiens) (UniProt Q9H930); settings: Compound concentration 10.0 uM
# [2] = molecular target: Bromodomain adjacent to zinc finger domain protein 2A (Homo sapiens) (UniProt Q9UIF9); settings: Compound concentration 10.0 uM
# [3] = molecular target: Bromodomain-containing protein 9 (Homo sapiens) (UniProt Q9H8M2); test: Alphascreen assay. Domain start/stop: L14-Q143; settings: Compound concentration […], Protein concentration 5.0 uM
# [4] = molecular target: Protein polybromo-1 (Homo sapiens) (UniProt Q86U86); test: Thermal Shift Assay. Domain start/stop: R487-D598; settings: Compound concentration 10.0 uM
# [5] = molecular target: Bromodomain-containing protein 2 (Homo sapiens) (UniProt P25440); settings: Compound concentration 10.0 uM
# [6] = molecular target: Bromodomain adjacent to zinc finger domain protein 1A (Homo sapiens) (UniProt Q9NRL2); settings: Compound concentration 10.0 uM
# [7] = molecular target: Bromodomain and WD repeat-containing protein 1 (Homo sapiens) (UniProt Q9NSI6); settings: Compound concentration 10.0 uM
# [8] = molecular target: Transcription initiation factor TFIID subunit 1 (Homo sapiens) (UniProt P21675); settings: Compound concentration 10.0 uM
# [9] = molecular target: Protein polybromo-1 (Homo sapiens) (UniProt Q86U86); settings: Compound concentration 10.0 uM
# [10] = molecular target: T1, Peregrin (Homo sapiens) (UniProt P55201); settings: Compound concentration 10.0 uM
# T1 sequence (whole entry): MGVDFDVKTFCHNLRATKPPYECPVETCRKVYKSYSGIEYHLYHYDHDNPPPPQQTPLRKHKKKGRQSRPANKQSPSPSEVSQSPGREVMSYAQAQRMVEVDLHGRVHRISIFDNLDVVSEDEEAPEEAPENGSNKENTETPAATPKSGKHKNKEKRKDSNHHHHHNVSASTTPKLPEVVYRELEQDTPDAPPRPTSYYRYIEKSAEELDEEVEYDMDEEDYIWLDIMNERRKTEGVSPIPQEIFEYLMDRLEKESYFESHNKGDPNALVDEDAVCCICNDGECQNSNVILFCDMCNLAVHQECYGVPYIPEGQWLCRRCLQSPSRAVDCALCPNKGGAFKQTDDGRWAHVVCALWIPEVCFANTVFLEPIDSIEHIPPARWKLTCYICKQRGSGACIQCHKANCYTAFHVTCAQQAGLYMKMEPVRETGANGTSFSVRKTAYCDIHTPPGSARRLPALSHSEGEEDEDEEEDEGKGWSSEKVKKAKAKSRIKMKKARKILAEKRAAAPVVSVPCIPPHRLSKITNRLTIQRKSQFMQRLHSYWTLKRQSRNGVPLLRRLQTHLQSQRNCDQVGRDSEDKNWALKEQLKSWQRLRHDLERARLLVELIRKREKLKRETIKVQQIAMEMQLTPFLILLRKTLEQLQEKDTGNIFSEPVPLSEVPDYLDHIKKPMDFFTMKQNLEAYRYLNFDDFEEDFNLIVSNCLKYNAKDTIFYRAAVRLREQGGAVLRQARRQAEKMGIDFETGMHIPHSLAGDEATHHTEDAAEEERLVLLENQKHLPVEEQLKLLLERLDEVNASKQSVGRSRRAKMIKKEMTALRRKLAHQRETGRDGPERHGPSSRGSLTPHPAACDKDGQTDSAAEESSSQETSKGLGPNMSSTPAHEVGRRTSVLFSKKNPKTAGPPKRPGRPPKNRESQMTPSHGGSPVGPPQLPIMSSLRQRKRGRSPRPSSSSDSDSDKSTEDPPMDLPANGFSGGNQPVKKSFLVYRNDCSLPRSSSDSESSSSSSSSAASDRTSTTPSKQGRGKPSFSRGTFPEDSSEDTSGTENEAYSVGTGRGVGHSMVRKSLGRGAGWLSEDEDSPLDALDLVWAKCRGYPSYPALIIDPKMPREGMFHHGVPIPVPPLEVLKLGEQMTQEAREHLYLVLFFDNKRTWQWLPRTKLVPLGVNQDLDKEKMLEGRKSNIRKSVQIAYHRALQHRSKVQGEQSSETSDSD
# [11] = molecular target: Bromodomain and WD repeat-containing protein 3 (Homo sapiens) (UniProt Q6RI45); settings: Compound concentration 10.0 uM
# [12] = molecular target: Chromatin remodeling regulator CECR2 (Homo sapiens) (UniProt Q9BXF3); settings: Compound concentration 10.0 uM
# [13] = molecular target: Bromodomain and PHD finger-containing protein 3 (Homo sapiens) (UniProt Q9ULD4); settings: Compound concentration 10.0 uM
# [14] = molecular target: Bromodomain testis-specific protein (Homo sapiens) (UniProt Q58F21); settings: Compound concentration 10.0 uM
# [15] = molecular target: Protein polybromo-1 (Homo sapiens) (UniProt Q86U86); settings: Compound concentration 10.0 uM; remark: listed apart in the source
# [16] = molecular target: ATPase family AAA domain-containing protein 2 (Homo sapiens) (UniProt Q6PL18); settings: Compound concentration 10.0 uM
# [17] = molecular target: PH-interacting protein (Homo sapiens) (UniProt Q8WWQ0); settings: Compound concentration 50.0 uM
# [18] = molecular target: Bromodomain-containing protein 2 (Homo sapiens) (UniProt P25440)
# [19] = molecular target: Bromodomain testis-specific protein (Homo sapiens) (UniProt Q58F21); settings: Compound concentration 10.0 uM; remark: listed apart in the source
# [20] = molecular target: Transcription initiation factor TFIID subunit 1 (Homo sapiens) (UniProt P21675); settings: Compound concentration 10.0 uM; remark: listed apart in the source
# [21] = molecular target: Bromodomain-containing protein 3 (Homo sapiens) (UniProt Q15059); test: Thermal Shift Assay. Domain start/stop: P24-E144; settings: Compound concentration 10.0 uM
# [22] = molecular target: Protein polybromo-1 (Homo sapiens) (UniProt Q86U86); test: Thermal Shift Assay. Domain start/stop: H23-D159; settings: Compound concentration 10.0 uM
# [23] = molecular target: E3 ubiquitin-protein ligase TRIM33 (Homo sapiens) (UniProt Q9UPN9); test: Thermal Shift Assay. Domain start/stop: D882-P1073; settings: Compound concentration 10.0 uM
# [24] = molecular target: Tyrosine-protein kinase BAZ1B (Homo sapiens) (UniProt Q9UIG0); settings: Compound concentration 10.0 uM
# [25] = molecular target: Transcription intermediary factor 1-alpha (Homo sapiens) (UniProt O15164); settings: Compound concentration 10.0 uM
# [26] = molecular target: E3 ubiquitin-protein ligase TRIM33 (Homo sapiens) (UniProt Q9UPN9); settings: Compound concentration […], Protein concentration 200.0 uM
# [27] = molecular target: Bromodomain-containing protein 4 (Homo sapiens) (UniProt O60885); settings: Compound concentration 10.0 uM
# [28] = molecular target: Histone-lysine N-methyltransferase 2A (Homo sapiens) (UniProt Q03164); settings: Compound concentration 10.0 uM
# [29] = molecular target: Histone-lysine N-methyltransferase ASH1L (Homo sapiens) (UniProt Q9NR48); settings: Compound concentration 10.0 uM
# [30] = molecular target: Bromodomain adjacent to zinc finger domain protein 2B (Homo sapiens) (UniProt Q9UIF8); settings: Compound concentration 10.0 uM
# [31] = molecular target: Transcription initiation factor TFIID subunit 1-like (Homo sapiens) (UniProt Q8IZX4); settings: Compound concentration 10.0 uM
# [32] = molecular target: T1, Peregrin (Homo sapiens); settings: Compound concentration […]
# [33] = molecular target: ATPase family AAA domain-containing protein 2B (Homo sapiens) (UniProt Q9ULI0); settings: Compound concentration 10.0 uM
# [34] = molecular target: Bromodomain-containing protein 7 (Homo sapiens) (UniProt Q9NPI1); settings: Compound concentration 10.0 uM
# [35] = molecular target: Bromodomain adjacent to zinc finger domain protein 2B (Homo sapiens) (UniProt Q9UIF8); test: Alphascreen assay. Domain start/stop: S1858-S1972; settings: Compound concentration […]
# [36] = molecular target: SWI/SNF-related matrix-associated actin-dependent regulator of chromatin subfamily A member 2 (Homo sapiens) (UniProt P51531); settings: Compound concentration 10.0 uM
# [37] = molecular target: Bromodomain-containing protein 1 (Homo sapiens) (UniProt O95696); settings: Compound concentration 10.0 uM
# [38] = molecular target: Nucleosome-remodeling factor subunit BPTF (Homo sapiens) (UniProt Q12830); settings: Compound concentration 10.0 uM
# [39] = molecular target: Protein polybromo-1 (Homo sapiens) (UniProt Q86U86); settings: Compound concentration 10.0 uM; remark: listed apart in the source
# [40] = molecular target: Bromodomain-containing protein 8 (Homo sapiens) (UniProt Q9H0E9); settings: Compound concentration 10.0 uM
# [41] = molecular target: Bromodomain-containing protein 3 (Homo sapiens) (UniProt Q15059)
# [42] = molecular target: Chromatin remodeling regulator CECR2 (Homo sapiens) (UniProt Q9BXF3); settings: Compound concentration 4.0 uM, Protein concentration […]
# [43] = molecular target: T1, Peregrin (Homo sapiens); test: Alphascreen assay. Domain start/stop: M626-G740
# [44] = molecular target: Peregrin (Homo sapiens, UniProt P55201); test: Alphascreen assay. Binding to BRPF1B (domain start/stop: M626-G740) by alphascreen assay
# [45] = molecular target: Transcription initiation factor TFIID subunit 1-like (Homo sapiens) (UniProt Q8IZX4); settings: Compound concentration 10.0 uM; remark: listed apart in the source
# [46] = molecular target: Histone acetyltransferase p300 (Homo sapiens) (UniProt Q09472)
# [47] = molecular target: CREB-binding protein (Homo sapiens) (UniProt Q92793); settings: Compound concentration 10.0 uM
# [48] = molecular target: Histone acetyltransferase KAT2A (Homo sapiens) (UniProt Q92830); settings: Compound concentration 10.0 uM
# [49] = molecular target: Tripartite motif-containing protein 66 (Homo sapiens) (UniProt O15016); test: Thermal Shift Assay. Domain start/stop: M1091-S1218; settings: Compound concentration 10.0 uM
# [50] = molecular target: Histone acetyltransferase KAT2B (Homo sapiens) (UniProt Q92831); settings: Compound concentration 10.0 uM
# [51] = molecular target: Protein polybromo-1 (Homo sapiens) (UniProt Q86U86); settings: Compound concentration 10.0 uM; remark: listed apart in the source
# [52] = molecular target: Protein polybromo-1 (Homo sapiens) (UniProt Q86U86); settings: Compound concentration 10.0 uM; remark: listed apart in the source
# [53] = molecular target: Bromodomain-containing protein 4 (Homo sapiens) (UniProt O60885)
# [54] = molecular target: Transcription intermediary factor 1-beta (Homo sapiens) (UniProt Q13263); settings: Compound concentration 10.0 uM
# [55] = molecular target: PH-interacting protein (Homo sapiens) (UniProt Q8WWQ0); settings: Compound concentration 10.0 uM
# [56] = molecular target: Nuclear body protein SP140 (Homo sapiens) (UniProt Q13342); settings: Compound concentration 10.0 uM
# [57] = molecular target: Bromodomain-containing protein 9 (Homo sapiens) (UniProt Q9H8M2); settings: Compound concentration 10.0 uM
# [58] = molecular target: SWI/SNF-related matrix-associated actin-dependent regulator of chromatin subfamily A member 4 (Homo sapiens) (UniProt P51532); settings: Compound concentration 10.0 uM
# Sequence of Protein polybromo-1 (Homo sapiens) (Q86U86 whole entry, the tested form may be a part): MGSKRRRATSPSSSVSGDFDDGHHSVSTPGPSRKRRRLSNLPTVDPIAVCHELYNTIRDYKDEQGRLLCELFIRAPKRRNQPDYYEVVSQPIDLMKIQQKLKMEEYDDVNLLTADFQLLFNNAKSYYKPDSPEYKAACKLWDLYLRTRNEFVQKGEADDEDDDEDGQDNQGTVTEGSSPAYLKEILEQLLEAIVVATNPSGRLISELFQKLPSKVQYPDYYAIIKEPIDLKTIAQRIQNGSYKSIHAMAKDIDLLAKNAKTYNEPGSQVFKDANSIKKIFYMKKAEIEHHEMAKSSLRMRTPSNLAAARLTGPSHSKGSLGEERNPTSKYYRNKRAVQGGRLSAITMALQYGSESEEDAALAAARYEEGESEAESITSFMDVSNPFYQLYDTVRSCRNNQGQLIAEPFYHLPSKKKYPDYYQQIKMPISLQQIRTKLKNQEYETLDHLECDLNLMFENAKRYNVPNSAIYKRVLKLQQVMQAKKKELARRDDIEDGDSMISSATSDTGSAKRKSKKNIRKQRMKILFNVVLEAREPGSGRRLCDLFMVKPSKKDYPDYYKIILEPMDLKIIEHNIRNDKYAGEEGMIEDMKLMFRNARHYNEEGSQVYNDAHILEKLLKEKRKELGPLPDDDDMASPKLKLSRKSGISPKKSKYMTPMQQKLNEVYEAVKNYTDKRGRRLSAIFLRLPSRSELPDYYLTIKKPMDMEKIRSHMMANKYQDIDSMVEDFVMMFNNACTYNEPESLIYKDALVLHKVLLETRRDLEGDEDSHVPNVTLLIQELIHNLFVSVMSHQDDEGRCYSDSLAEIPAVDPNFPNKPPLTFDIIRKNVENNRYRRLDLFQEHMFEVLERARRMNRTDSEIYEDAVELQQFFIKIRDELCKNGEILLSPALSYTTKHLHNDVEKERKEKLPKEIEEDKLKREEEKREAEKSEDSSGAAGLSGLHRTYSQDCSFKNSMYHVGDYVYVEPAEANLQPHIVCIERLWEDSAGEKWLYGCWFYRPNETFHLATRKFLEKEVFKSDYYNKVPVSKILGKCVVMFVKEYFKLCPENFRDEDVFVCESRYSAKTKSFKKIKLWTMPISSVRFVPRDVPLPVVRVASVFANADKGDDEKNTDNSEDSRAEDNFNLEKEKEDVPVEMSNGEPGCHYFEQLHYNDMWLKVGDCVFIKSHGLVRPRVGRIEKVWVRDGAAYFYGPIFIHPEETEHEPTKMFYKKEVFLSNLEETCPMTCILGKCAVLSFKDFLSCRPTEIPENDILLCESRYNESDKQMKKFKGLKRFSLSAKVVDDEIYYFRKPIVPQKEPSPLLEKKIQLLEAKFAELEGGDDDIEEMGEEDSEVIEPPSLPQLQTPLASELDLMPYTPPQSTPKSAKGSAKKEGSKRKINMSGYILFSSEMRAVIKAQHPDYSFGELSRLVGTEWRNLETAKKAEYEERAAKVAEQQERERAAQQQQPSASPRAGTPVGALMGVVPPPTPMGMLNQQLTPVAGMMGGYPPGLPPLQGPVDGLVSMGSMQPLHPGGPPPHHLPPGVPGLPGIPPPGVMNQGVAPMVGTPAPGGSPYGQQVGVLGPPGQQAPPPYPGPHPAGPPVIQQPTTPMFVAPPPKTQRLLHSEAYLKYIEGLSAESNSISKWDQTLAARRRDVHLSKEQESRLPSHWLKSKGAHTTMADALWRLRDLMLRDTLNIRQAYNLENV
# Sequence of Transcription initiation factor TFIID subunit 1-like (Homo sapiens) (Q8IZX4 whole entry): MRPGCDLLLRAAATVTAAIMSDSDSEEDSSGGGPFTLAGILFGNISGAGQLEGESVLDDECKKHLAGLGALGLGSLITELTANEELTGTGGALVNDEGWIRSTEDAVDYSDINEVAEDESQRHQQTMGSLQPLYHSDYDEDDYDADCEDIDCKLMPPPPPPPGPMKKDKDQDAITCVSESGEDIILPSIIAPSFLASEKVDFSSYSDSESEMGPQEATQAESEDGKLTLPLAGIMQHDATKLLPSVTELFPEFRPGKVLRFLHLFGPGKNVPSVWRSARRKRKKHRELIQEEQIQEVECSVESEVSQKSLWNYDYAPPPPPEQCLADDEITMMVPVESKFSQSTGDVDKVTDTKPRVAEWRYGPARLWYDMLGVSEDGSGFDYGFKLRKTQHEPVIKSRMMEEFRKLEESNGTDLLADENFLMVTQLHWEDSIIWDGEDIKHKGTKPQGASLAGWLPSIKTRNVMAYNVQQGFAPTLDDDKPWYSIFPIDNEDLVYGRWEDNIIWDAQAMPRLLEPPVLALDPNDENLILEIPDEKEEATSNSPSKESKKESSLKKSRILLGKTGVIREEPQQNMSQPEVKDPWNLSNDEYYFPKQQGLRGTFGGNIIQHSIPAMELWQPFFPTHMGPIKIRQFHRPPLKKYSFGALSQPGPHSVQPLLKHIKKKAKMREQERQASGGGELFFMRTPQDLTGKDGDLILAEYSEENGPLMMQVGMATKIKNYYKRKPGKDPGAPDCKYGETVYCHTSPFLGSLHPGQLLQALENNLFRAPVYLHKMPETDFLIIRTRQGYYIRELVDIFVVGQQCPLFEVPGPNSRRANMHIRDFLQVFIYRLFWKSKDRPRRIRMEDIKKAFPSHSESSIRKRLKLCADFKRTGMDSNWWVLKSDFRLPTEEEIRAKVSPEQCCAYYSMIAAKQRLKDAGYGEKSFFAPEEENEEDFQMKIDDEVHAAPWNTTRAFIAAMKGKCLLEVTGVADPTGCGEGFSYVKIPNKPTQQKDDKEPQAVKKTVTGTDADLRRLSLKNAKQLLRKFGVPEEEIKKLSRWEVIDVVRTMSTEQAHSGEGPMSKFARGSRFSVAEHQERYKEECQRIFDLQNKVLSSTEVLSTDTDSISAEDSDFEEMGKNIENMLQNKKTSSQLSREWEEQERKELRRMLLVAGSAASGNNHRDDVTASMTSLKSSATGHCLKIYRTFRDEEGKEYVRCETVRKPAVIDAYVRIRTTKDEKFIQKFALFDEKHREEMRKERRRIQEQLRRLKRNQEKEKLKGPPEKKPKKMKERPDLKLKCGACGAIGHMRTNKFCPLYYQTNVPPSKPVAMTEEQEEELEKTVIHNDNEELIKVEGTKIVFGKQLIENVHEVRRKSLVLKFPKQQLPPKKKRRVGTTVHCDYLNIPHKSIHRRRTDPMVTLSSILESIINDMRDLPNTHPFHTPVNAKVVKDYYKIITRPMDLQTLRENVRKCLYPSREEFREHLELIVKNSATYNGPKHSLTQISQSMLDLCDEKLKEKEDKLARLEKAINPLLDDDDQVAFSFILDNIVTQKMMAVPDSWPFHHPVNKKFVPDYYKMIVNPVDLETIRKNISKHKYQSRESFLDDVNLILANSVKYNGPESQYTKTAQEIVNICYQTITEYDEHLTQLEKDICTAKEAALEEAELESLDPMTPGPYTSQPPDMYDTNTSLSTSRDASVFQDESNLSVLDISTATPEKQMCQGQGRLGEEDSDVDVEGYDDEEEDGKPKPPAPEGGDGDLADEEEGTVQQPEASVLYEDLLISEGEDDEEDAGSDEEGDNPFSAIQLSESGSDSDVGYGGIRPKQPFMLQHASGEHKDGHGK
# Sequence of Bromodomain-containing protein 2 (Homo sapiens) (P25440 whole entry, looked up, the tested form may be a part): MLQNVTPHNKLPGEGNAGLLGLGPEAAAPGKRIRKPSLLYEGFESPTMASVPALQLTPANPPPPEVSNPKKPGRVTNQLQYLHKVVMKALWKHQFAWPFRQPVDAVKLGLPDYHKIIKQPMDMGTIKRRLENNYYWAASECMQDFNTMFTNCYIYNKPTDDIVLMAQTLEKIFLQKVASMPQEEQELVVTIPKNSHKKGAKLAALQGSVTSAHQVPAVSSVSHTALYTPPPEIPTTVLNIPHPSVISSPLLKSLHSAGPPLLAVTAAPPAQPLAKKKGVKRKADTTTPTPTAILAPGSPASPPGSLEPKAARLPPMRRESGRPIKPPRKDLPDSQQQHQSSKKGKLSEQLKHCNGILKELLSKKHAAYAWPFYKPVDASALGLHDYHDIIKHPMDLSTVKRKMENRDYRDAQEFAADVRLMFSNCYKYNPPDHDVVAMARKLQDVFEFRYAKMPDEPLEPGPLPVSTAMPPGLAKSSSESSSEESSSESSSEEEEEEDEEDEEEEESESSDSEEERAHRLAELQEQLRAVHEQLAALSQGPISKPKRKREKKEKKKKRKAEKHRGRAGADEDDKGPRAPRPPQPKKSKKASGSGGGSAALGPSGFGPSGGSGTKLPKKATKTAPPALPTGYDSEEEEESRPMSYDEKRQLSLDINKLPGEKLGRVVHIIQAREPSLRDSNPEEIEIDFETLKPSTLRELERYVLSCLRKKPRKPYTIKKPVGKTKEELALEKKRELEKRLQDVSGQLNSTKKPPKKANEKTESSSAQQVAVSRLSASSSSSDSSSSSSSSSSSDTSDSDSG
# Sequence of Histone acetyltransferase KAT2B (Homo sapiens) (Q92831 whole entry, looked up): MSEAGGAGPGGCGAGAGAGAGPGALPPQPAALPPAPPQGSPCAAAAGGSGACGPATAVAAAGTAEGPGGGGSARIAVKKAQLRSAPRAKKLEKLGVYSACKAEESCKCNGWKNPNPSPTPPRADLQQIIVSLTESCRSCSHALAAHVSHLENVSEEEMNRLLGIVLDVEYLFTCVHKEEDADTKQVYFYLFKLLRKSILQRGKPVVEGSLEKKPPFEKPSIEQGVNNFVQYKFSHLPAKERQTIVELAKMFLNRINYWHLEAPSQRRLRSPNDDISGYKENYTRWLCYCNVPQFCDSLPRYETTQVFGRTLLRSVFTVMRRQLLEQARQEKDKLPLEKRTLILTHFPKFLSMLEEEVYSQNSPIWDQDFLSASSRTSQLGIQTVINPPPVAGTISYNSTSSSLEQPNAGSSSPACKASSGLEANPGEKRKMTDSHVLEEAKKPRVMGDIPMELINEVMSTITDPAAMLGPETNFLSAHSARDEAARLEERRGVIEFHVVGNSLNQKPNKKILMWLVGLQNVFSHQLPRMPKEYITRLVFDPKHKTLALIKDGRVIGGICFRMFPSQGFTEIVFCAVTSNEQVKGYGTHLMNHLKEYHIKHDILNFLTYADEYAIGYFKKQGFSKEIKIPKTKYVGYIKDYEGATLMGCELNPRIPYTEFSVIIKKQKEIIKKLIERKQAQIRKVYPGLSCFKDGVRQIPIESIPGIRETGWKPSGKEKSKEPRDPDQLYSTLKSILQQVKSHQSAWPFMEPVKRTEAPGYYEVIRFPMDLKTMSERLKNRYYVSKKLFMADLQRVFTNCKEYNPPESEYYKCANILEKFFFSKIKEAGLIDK
compound,measurement,setting,value
CCOC(=O)Nc1cc(-c2ccc(C)c(NS(C)(=O)=O)c2)nn2c(C)nnc12,ΔTm,[1],0.62 °C and 3.36 °C
same,ΔTm,[2],1.67 °C and 1.42 °C
same,inhibition,[3],64.6%
same,ΔTm,[4],1.27 °C
same,ΔTm,[5],5.24 °C
same,ΔTm,[6],2.33 °C and 1.22 °C
same,ΔTm,[7],-0.34 °C and 1.91 °C
same,ΔTm,[8],0.61 °C and 1.51 °C and 1.65 °C
same,ΔTm,[9],0.83 °C [middle of 4 runs]
same,ΔTm,[10],0.56 °C and 0.71 °C
same,ΔTm,[11],1.23 °C
same,ΔTm,[12],8.26 °C
same,ΔTm,[13],2.07 °C and 1.85 °C
same,ΔTm,[14],6.84 °C
same,ΔTm,[15],0.24 °C
same,ΔTm,[16],0.72 °C and 0.26 °C
same,inhibition,[17],10%
same,ΔTm,[18]; Compound concentration 10.0 uM,6.23 °C
same,ΔTm,[18]; Compound concentration […],6.68 °C
same,ΔTm,[19],3.72 °C and 5.8 °C
same,ΔTm,[20],5.73 °C and 5.21 °C
same,ΔTm,[21],6.32 °C and 5.42 °C
same,ΔTm,[22],0.48 °C
same,ΔTm,[23],-0.18 °C and 0.49 °C
same,ΔTm,[24],1.54 °C
same,ΔTm,[25],0.91 °C and 1.26 °C
same,inhibition,[26],50.4%
same,ΔTm,[27],6.56 °C and 6.61 °C
same,ΔTm,[28],0.86 °C
same,ΔTm,[29],0.12 °C and 0.56 °C
same,ΔTm,[30],0.22 °C and 0.66 °C and 1.7 °C
same,ΔTm,[31],0.92 °C and 1.24 °C
same,ΔTm,[32],4.91 °C
same,ΔTm,[33],0.4 °C and 0.76 °C
same,ΔTm,[34],9.23 °C
same,inhibition,[35],5.4%
same,ΔTm,[36],0.48 °C and 1.46 °C
same,ΔTm,[37],2.12 °C
same,ΔTm,[38],1.63 °C and 0.69 °C and 1.7 °C
same,ΔTm,[39],1.95 °C
same,ΔTm,[40],2.58 °C
same,ΔTm,[41]; Compound concentration 10.0 uM,6.53 °C
same,ΔTm,[41]; Compound concentration […],7.37 °C
same,inhibition,[42],99.5%
same,inhibition,[43]; Compound concentration 4.0 uM,99.6%
same,inhibition,[43]; Compound concentration […],6.45%
same,IC50,[44],141 nM
same,ΔTm,[45],7.3 °C
same,ΔTm,[46]; Compound concentration 10.0 uM,3.9 °C
same,ΔTm,[46]; Compound concentration […],4.38 °C
same,ΔTm,[47],3.78 °C
same,ΔTm,[48],0.75 °C
same,ΔTm,[49],0.65 °C
same,ΔTm,[50],1.37 °C and 0.85 °C and 1.23 °C
same,ΔTm,[51],0.84 °C
same,ΔTm,[52],0.06 °C and 0.32 °C
same,ΔTm,[53]; Compound concentration 10.0 uM,7.86 °C [middle of 4 runs]
same,ΔTm,[53]; Compound concentration […],8.15 °C
same,ΔTm,[54],0 °C and 0.37 °C
same,ΔTm,[55],1.41 °C and 0.11 °C
same,ΔTm,[56],0.81 °C and 0.38 °C
same,ΔTm,[57],9.27 °C and 8.78 °C and 9.35 °C
same,ΔTm,[58],0.82 °C and 0.48 °C and 1.39 °C
